Literature values in patent US20090269405A1, “ENZYME MEDIATED DELIVERY SYSTEM” (Appian Labs, LLC, priority 2008, published 2009).
Where two headings read alike, the source gives them in different places.

Tests used:
[1] = chronic oral, 100 mg bid

patients who developed abdominal aortic aneurysms [1] | Compound | onset of musculoskeletal toxicity (severe events) (25 mg daily) | onset of musculoskeletal toxicity (severe events) (75 mg twice daily)
five out of 33 | C[C@H]1c2cccc(O)c2C(=O)C2=C(O)[C@]3(O)C(=O)C(C(N)=O)=C(O)[C@@H](N(C)C)[C@@H]3[C@@H](O)[C@@H]21 [doxycycline] |  | 
 | CNC(=O)[C@@H](NC(=O)[C@H](CC(C)C)[C@H](O)C(=O)NO)C(C)(C)C [Marimastat] | 199 days | 56 days
